From patent publication US11813306B2, “Cyclic tetramer compounds as proprotein convertase subtilisin/kexin type 9 (PCSK9) inhibitors for the treatment of metabolic disorders” (NOVARTIS AG, priority 2018, dated 2023)
Read-outs that look alike come from different tables or passages of the source.

How the values were obtained:
human PCSK9 = human PCSK9 (Homo sapiens, UniProt Q8NBP7); test: PCSK9 ligand binding assay (TR-FRET): interference with binding of human PCSK9 to human LDLR; conditions: for IC50: Human PCSK9 Alexa Fluor 647 / Human LDLR extracellular domain-Europium Kryptate; for Max % inhibition: efficacy (Amax), 100% = 1 uM unlabeled human PCSK9, 0% = DMSO
How it was run: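 Read-out was TR-FRET ratio (665 nm over 615 nm, 330 nm excitation) between Alexa Fluor 647-human PCSK9 (16 nM added) and Europium Kryptate-human LDLR ectodomain (4 nM added). Compound and PCSK9 were mixed 30 min before LDLR, then incubated 2 h. Inhibition was normalised to DMSO and unlabelled-PCSK9 controls, giving IC50 and Amax.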

[1] = DCM

Sequence of human PCSK9 (Q8NBP7 153-692): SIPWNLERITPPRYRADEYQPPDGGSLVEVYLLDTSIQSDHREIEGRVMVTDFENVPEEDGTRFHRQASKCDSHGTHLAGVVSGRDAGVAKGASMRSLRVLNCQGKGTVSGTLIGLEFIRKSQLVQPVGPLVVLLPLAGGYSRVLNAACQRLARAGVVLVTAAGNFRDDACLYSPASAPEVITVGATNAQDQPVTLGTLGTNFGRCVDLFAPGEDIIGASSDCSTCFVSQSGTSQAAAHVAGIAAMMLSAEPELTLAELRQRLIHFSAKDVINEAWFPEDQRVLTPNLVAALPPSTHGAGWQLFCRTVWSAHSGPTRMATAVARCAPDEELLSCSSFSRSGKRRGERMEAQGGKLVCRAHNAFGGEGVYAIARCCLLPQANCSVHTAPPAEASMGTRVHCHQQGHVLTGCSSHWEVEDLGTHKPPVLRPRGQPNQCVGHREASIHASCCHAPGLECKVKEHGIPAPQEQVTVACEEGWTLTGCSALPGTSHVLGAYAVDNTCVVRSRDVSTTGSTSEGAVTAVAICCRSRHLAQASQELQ
Sequence of human PCSK9 (Q8NBP7 31-152 partner limits assumed): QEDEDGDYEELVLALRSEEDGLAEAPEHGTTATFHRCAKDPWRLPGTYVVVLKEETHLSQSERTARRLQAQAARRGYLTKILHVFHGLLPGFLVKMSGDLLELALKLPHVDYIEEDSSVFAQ

Row | SMILES | IC50 (human PCSK9) [nM] | Max % inhibition (human PCSK9) [%] | further results
1 | C[C@H]1C(=O)N[C@@H](CO)C(=O)N[C@@]2(Cc3ccc(Cl)cc3)CCCN(C2)C(=O)[C@H](Cc2ccccc2)OC(=O)N1Cc1ccc(Cl)cc1Oc1ccc(-c2cnc(CN(C)C)n2C)cc1.Cl [Compound 78, (3S,7S,10S,13R)-3-benzyl-6-(4-chloro-2-(4-(2-((dimethylamino)methyl)-1-methyl-1H-imidazol-5-yl)phenoxy)benzyl)-13-(4-chlorobenzyl)-10-(hydroxymethyl)-7-methyl-4-oxa-1,6,9,12-tetraazabicyclo[11.3.1]heptadecane-2,5,8,11-tetraone hydrochloride] | 0.859 | 99.2 | ring closure, yield of all isomers ([1]; from C[C@@H](C(=O)N[C@@H](CO)C(=O)N[C@@]1(Cc2ccc(Cl)cc2)CCCNC1)N(Cc1ccc(Cl)cc1Oc1ccc(-c2cnc(CN(C)C)n2C)cc1)C(=O)O[C@@H](Cc1ccccc1)C(=O)O, amide bond, HATU/HOAt, 2,6-lutidine, 1.0 mM, 25.0 °C, 2.25 h, 2 steps): 38%
2 | COC[C@@H]1NC(=O)[C@H](C)N(Cc2ccc(Cl)cc2Oc2ccc(-c3cnc(CN(C)C)n3C)cc2)C(=O)O[C@@H](Cc2ccccc2)C(=O)N2CCC[C@@](Cc3ccc(Cl)cc3)(C2)NC1=O.Cl [Compound 156, (3S,7S,10S,13R)-3-benzyl-6-(4-chloro-2-(4-(2-((dimethylamino)methyl)-1-methyl-1H-imidazol-5-yl)-phenoxy)benzyl)-13-(4-chlorobenzyl)-10-(methoxymethyl)-7-methyl-4-oxa-1,6,9,12-tetraazabicyclo[11.3.1]heptadecane-2,5,8,11-tetraone hydrochloride] | 9.21 | 100.8 | ring closure, yield of all isomers ([1]; from COC[C@H](NC(=O)[C@H](C)N(Cc1ccc(Cl)cc1Oc1ccc(-c2cnc(CN(C)C)n2C)cc1)C(=O)O[C@@H](Cc1ccccc1)C(=O)O)C(=O)N[C@@]1(Cc2ccc(Cl)cc2)CCCNC1, amide bond, HATU/HOAt, 2,6-lutidine, 0.95 mM, 25.0 °C, 1.5 h): 38%
3 | CC(C)[C@H]1CC(=O)N(Cc2ccc(Cl)cc2Oc2ccc(-c3cnc(CN(C)C)n3C)cc2)[C@@H](C)C(=O)N[C@@H](CO)C(=O)N[C@@]2(Cc3ccc(Cl)cc3)CCCN(C2)C1=O.Cl [Compound 133, (3R,7S,10S,13R)-6-(4-chloro-2-(4-(2-((dimethylamino)methyl)-1-methyl-1H-imidazol-5-yl)phenoxy)benzyl)-13-(4-chlorobenzyl)-10-(hydroxymethyl)-3-isopropyl-7-methyl-1,6,9,12-tetraazabicyclo[11.3.1]heptadecane-2,5,8,11-tetraone hydrochloride] | 1490 | 76.9 | ring closure, yield of all isomers ([1]; from CC(C)[C@@H](CC(=O)N(Cc1ccc(Cl)cc1Oc1ccc(-c2cnc(CN(C)C)n2C)cc1)[C@@H](C)C(=O)N[C@@H](CO)C(=O)N[C@@]1(Cc2ccc(Cl)cc2)CCCNC1)C(=O)O, amide bond, HATU, 1.0 mM, 25.0 °C, 17.0 h): 59%
4 | COC[C@@H]1NC(=O)[C@H](C)N(Cc2c(F)cc(Cl)cc2Oc2ccc(-c3cnc(CN(C)C)n3C)cc2)C(=O)C[C@@H](Cc2cccc(C)n2)C(=O)N2CCC[C@@](Cc3ccc(Cl)cc3)(C2)N(C)C1=O [Compound 13, (3R,7S,10S,13R)-6-(4-chloro-2-(4-(2-((dimethylamino)methyl)-1-methyl-1H-imidazol-5-yl)phenoxy)-6-fluorobenzyl)-13-(4-chlorobenzyl)-10-(methoxymethyl)-7,12-dimethyl-3-((6-methylpyridin-2-yl)methyl)-1,6,9,12-tetraazabicyclo[11.3.1]heptadecane-2,5,8,11-tetraone] | 0.549 | 112.1 | ring closure, yield of all isomers ([1]; from COC[C@H](NC(=O)[C@H](C)NCc1c(F)cc(Cl)cc1Oc1ccc(-c2cnc(CN(C)C)n2C)cc1)C(=O)N(C)[C@@]1(Cc2ccc(Cl)cc2)CCCN(C(=O)[C@@H](CC(=O)O)Cc2cccc(C)n2)C1, amide bond, HATU/HOAt/2,6-lutidine, 1.59 mM, 48.0 °C, 16.0 h): 33%

Continued, in another order:

Row | IC50 (human PCSK9) [nM] | Max % inhibition (human PCSK9) [%] | SMILES | further results
5 | 0.476 | 106.6 | C[C@H]1C(=O)N[C@@H](CO)C(=O)N[C@@]2(Cc3ccc(Cl)cc3)CCCN(C2)C(=O)[C@H](Cc2ccccc2)NC(=O)N1Cc1ccc(Cl)cc1Oc1ccc(-c2cnc(CN(C)C)n2C)cc1.Cl [Compound 60, (3S,7S,10S,13R)-3-benzyl-6-(4-chloro-2-(4-(2-((dimethylamino)methyl)-1-methyl-1H-imidazol-5-yl)phenoxy)benzyl)-13-(4-chlorobenzyl)-10-(hydroxymethyl)-7-methyl-1,4,6,9,12-pentaaza-bicyclo[11.3.1]-heptadecane-2,5,8,11-tetraone hydrochloride] | ring closure, yield of all isomers ([1]; from C[C@@H](C(=O)N[C@@H](CO)C(=O)N[C@@]1(Cc2ccc(Cl)cc2)CCCNC1)N(Cc1ccc(Cl)cc1Oc1ccc(-c2cnc(CN(C)C)n2C)cc1)C(=O)N[C@@H](Cc1ccccc1)C(=O)O, amide bond, HATU/HOAt/2,6-lutidine, 1.0 mM, 25.0 °C, 2.5 h): 55%
6 | 2.21 | 96.3 | COC[C@@H]1NC(=O)[C@H](C)N(Cc2ccc(Cl)cc2Oc2ccc(-c3cnc(CN4CCCC4)n3C)cc2)C(=O)C[C@@H]([C@H]2CCc3ccccc32)C(=O)N2CCC[C@@](Cc3ccc(Cl)cc3)(C2)NC1=O.O=C(O)C(F)(F)F [Compound 96, (3S,7S,10S,13R)-6-(4-chloro-2-(4-(1-methyl-2-(pyrrolidin-1-ylmethyl)-1H-imidazol-5-yl)phenoxy)benzyl)-13-(4-chlorobenzyl)-3-((R)-2,3-dihydro-1H-inden-1-yl)-10-(methoxymethyl)-7-methyl-1,6,9,12-tetraazabicyclo[11.3.1]heptadecane-2,5,8,11-tetraone trifluoroacetate] | ring closure, yield of all isomers ([1]; from COC[C@H](NC(=O)[C@H](C)NCc1ccc(Cl)cc1Oc1ccc(-c2cnc(CN3CCCC3)n2C)cc1)C(=O)N[C@@]1(Cc2ccc(Cl)cc2)CCCN(C(=O)[C@@H](CC(=O)O)[C@H]2CCc3ccccc32)C1, amide bond, HATU/HOAt/2,6-lutidine, 1.04 mM, 40.0 °C, 17.0 h): 46%
7 | 61.2 | 102.4 | COC[C@@H]1NC(=O)[C@H](C)N(Cc2ccc(Cl)cc2Oc2ccc(-c3cnc(CN(C)C)n3C)cc2)CC[C@@H](Cc2ccccc2)C(=O)N2CCC[C@@](Cc3ccc(Cl)cc3)(C2)NC1=O.O=C(O)C(F)(F)F [Compound 120, (3R,7S,10S,13R)-3-benzyl-6-(4-chloro-2-(4-(2-((dimethylamino)methyl)-1-methyl-1H-imidazol-5-yl)phenoxy)benzyl)-13-(4-chlorobenzyl)-10-(methoxymethyl)-7-methyl-1,6,9,12-tetraazabicyclo[11.3.1]heptadecane-2,8,11-trione trifluoroacetate] | ring closure, yield of all isomers ([1]; from COC[C@H](NC(=O)[C@H](C)N)C(=O)N[C@@]1(Cc2ccc(Cl)cc2)CCCN(C(=O)[C@@H](CC=O)Cc2ccccc2)C1, amine bond, NaBH(OAc)3/AcOH, 10.0 mM, 25.0 °C, 2.5 h, 4 steps): 0.6%
